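Compound exposure: 48 hours, 5 concentrations, 96-well plates. GI50 marks 50% less growth.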 Calls of active or inactive are those of the source. Cut-off read from the data, not from the text of the source: active = GI50 up to about 1.1 µM and inactive = higher.
Legend:
Assay in all cases: NCI-60 cell line screen, 48 h
SF-268 = tested on: SF-268
HCC 2998 = tested on: HCC 2998
SK-OV-3 = tested on: SK-OV-3
A549 = tested on: A549
MDA-MB-231 = tested on: MDA-MB-231
ACHN = tested on: ACHN
A498 = tested on: A498
NCI-H23 = tested on: NCI-H23
RPMI-8226 = tested on: RPMI-8226
Malme-3M = tested on: Malme-3M
SW-620 = tested on: SW-620
KM12 = tested on: KM12
OVCAR-3 = tested on: OVCAR-3
SN12C = tested on: SN12C
PC-3 = tested on: PC-3
HCT-15 = tested on: HCT-15
LOX IMVI = tested on: LOX IMVI
NCI-H226 = tested on: NCI-H226
UO-31 = tested on: UO-31
NCI/ADR-RES = tested on: NCI/ADR-RES

Structure (SMILES) | GI50 (SF-268) | GI50 (HCC 2998) | GI50 (SK-OV-3) | GI50 (A549) | GI50 (MDA-MB-231) | GI50 (ACHN) | GI50 (A498) | GI50 (NCI-H23) | GI50 (RPMI-8226) | GI50 (Malme-3M) | GI50 (SW-620) | GI50 (KM12) | GI50 (OVCAR-3) | GI50 (SN12C) | GI50 (PC-3) | GI50 (HCT-15) [µM] | GI50 (LOX IMVI) | GI50 (NCI-H226) | GI50 (UO-31) | GI50 (NCI/ADR-RES)
COc1ccc2nc3c([N+](=O)[O-])ccc4c3c(c2c1)N=CN4CCN(C)C | 4.09 µM (inactive) | 3.83 µM (inactive) | 9.27 µM (inactive) | 3.44 µM (inactive) | 1.84 µM (inactive) | 3.66 µM (inactive) | 4.16 µM (inactive) | 7.55 µM (inactive) | 2.24 µM (inactive) | 3.92 µM (inactive) | 3.3 µM (inactive) | 3.86 µM (inactive) | 4.55 µM (inactive) | 2.88 µM (inactive) | 4.65 µM (inactive) | 2.57 | 3.38 µM (inactive) | 4.34 µM (inactive) | 2.46 µM (inactive) | 3.18 µM (inactive)
CCN(CC)c1ccc(C2NC(=O)c3ccccc3N2)cc1 (stereo not given) | 8.57 µM (inactive) | 2.19 µM (inactive) | 3.74 µM (inactive) | 3.27 µM (inactive) | 1.88 µM (inactive) | 7.03 µM (inactive) | 4.95 µM (inactive) | 2.77 µM (inactive) | 3.37 µM (inactive) | > 28.4 µM (inactive) | 1.5 µM (inactive) | 2.15 µM (inactive) | 2.82 µM (inactive) | 9.98 µM (inactive) | 3.32 µM (inactive) | 1.13 | 2.95 µM (inactive) | 2.98 µM (inactive) | > 24.5 µM (inactive) | 1.85 µM (inactive)
CSc1n[nH]c2[nH]nc(C)c12 | > 100 µM (inactive) | > 100 µM (inactive) | > 100 µM (inactive) | > 100 µM (inactive) | > 100 µM (inactive) | > 100 µM (inactive) | > 100 µM (inactive) | > 100 µM (inactive) | > 100 µM (inactive) | > 100 µM (inactive) | > 100 µM (inactive) | > 100 µM (inactive) | > 100 µM (inactive) | > 100 µM (inactive) | > 100 µM (inactive) | > 100 | > 100 µM (inactive) | > 100 µM (inactive) | > 100 µM (inactive) | > 100 µM (inactive)
O=C(O)C/N=C(\C(=N\CC(=O)O)c1ccccc1)c1ccccc1 | > 100 µM (inactive) | > 100 µM (inactive) | > 100 µM (inactive) | > 100 µM (inactive) | > 100 µM (inactive) | > 100 µM (inactive) | > 100 µM (inactive) | > 100 µM (inactive) | 85.7 µM (inactive) | > 100 µM (inactive) | > 100 µM (inactive) | > 100 µM (inactive) | > 100 µM (inactive) | > 100 µM (inactive) | > 100 µM (inactive) | > 100 | > 100 µM (inactive) | > 100 µM (inactive) | 90.2 µM (inactive) | > 100 µM (inactive)
Nc1ccc2ccc(-c3ccc[nH]3)nc2n1 | > 100 µM (inactive) | > 100 µM (inactive) | > 100 µM (inactive) | > 100 µM (inactive) | > 100 µM (inactive) | > 100 µM (inactive) | > 100 µM (inactive) | > 100 µM (inactive) | > 100 µM (inactive) | > 100 µM (inactive) | > 100 µM (inactive) | > 100 µM (inactive) | > 100 µM (inactive) | > 100 µM (inactive) | > 100 µM (inactive) | > 100 | > 100 µM (inactive) | > 100 µM (inactive) | > 100 µM (inactive) | > 100 µM (inactive)
CSc1nc(Cl)c2c(n1)Sc1nc3ccccc3n1N=C2 | 31 µM (inactive) | 26.5 µM (inactive) | > 100 µM (inactive) | 45.2 µM (inactive) | 23.9 µM (inactive) | 23.7 µM (inactive) | > 100 µM (inactive) | 29.6 µM (inactive) | 21.6 µM (inactive) | 25.8 µM (inactive) | 13.2 µM (inactive) | 37.8 µM (inactive) | 25.5 µM (inactive) | 37.8 µM (inactive) | 22.3 µM (inactive) | 17.6 | 18.2 µM (inactive) | 62.7 µM (inactive) | 18.5 µM (inactive) | 21.7 µM (inactive)
CCCCCCCCCCCCCCCCNc1nc(=O)n(C2OC(C)C(O)C2O)cc1F (stereo not given) | 20 µM (inactive) | 16.9 µM (inactive) | 22.9 µM (inactive) | 23.1 µM (inactive) | 20.7 µM (inactive) | 15.5 µM (inactive) | 19.5 µM (inactive) | 18 µM (inactive) | 10.6 µM (inactive) | 23.1 µM (inactive) | 19.9 µM (inactive) | 17.4 µM (inactive) | 17.5 µM (inactive) | 21.9 µM (inactive) | 13.2 µM (inactive) | 14.9 | 24.3 µM (inactive) | 21 µM (inactive) | 14 µM (inactive) | 18.9 µM (inactive)

— ChEMBL document CHEMBL1201862, “PubChem BioAssay data set” (2004)
